Test results from US9211284B2, “Diagnosis and treatment of P.R.I.C.E. syndrome” (priority 2013, dated 2015).
Entries after “also recorded” stand apart in the source; their conditions may differ.

Tests used:
[1] = system: patient having P.R.I.C.E. Syndrome; assay: Example 2: case report of a patient with P.R.I.C.E. Syndrome, earlier medications then INTUNIV (plus inositol); assay type: in vivo, human; conditions: Example 2 patient; for effect on the patient's symptoms (particularism, concentration) / side effects: medications given before the P.R.I.C.E. diagnosis
Protocol: They had been taking Zoloft and Abilify, as well as Melatonin to help them sleep.
The Applicant tapered and discontinued the patient's then-current medications. The Applicant then titrated up INTUNIV® 1 mg at bedtime, increasing by an additional 1 mg at bedtime every week as necessary to achieve symptom control, up to a maximum of 4 mg.

[2] = system: patient having P.R.I.C.E. Syndrome; assay: Example 1: case report of a patient with P.R.I.C.E. Syndrome, earlier medications then KAPVAY (plus inositol)
From the text: The patient was tried on many psychostimulant medications, which are the gold standard for treatment of ADHD. Medications in this class include: Adderall/XR, Focalin/XR, Dexedrine, Vyvanse, Ritalin/LA/ER, Metadate ER/CD, Concerta and Daytrana.
By convention, psychiatrists refer to this phenomenon as Bipolar III or hypomania induced by medication which predicts and unmasks the development of spontaneous mood swings of genuine Bipolar to come for the patient later in life.
Nevertheless, the psychiatrist tried a series of atypical antipsychotics, including Zyprexa, Geodon, Seroquel as well as two FDA approved drugs for treatment of irritability in Autistic Disorder, Abilify and Risperdal.
The Applicant tapered and discontinued the aforementioned medications in the patient. The Applicant then titrated up KAPVAY® as follows: 0.1 mg at bedtime for a week; next, 0.1 mg twice a day for a week; next, 0.1 mg in the morning and 0.2 mg at night for one week; and finally 0.2 mg twice a day going forward.

[3] = system: patients having P.R.I.C.E. Syndrome; assay: Applicant's general clinical findings in patients who meet all criteria for P.R.I.C.E. Syndrome; assay type: in vivo, human; conditions: patients meeting all P.R.I.C.E. criteria, Applicant's practice
From the text: Both KAPVAY® and INTUNIV® are FDA-approved for treatment of ADHD. […] A psychiatrist would be led away from prescribing KAPVAY® or INTUNIV® to patients with suspected Bipolar Disorder since it is known that alpha-2 adrenergic agonists could potentially exacerbate emotional lability found in such patients.
Extended release clonidine is capable of stable therapeutic effects by maintaining a constant serum level for an extended period in order to avoid the “peak and trough” side effects of transient sedation at peak serum levels and rebound exacerbation of symptoms at trough levels. Embodiments of extended release compositions of clonidine are described in U.S. Pat. No. 5,869,100, which is incorporated herein by reference in its entirety.

[4] = system: patients with Bipolar Disorder; conditions: post-marketing reports; cited from earlier work
[5] = cited from earlier work
[6] = Example 1 patient, medications tried before the P.R.I.C.E. diagnosis

Row | Compound | side effects ([2]; human, in vivo) | effect on the patient's symptoms (agitation, impulsivity, concentration, rigidity) [2, 6] | further results
1 | O=C1CCc2ccc(OCCCCN3CCN(c4cccc(Cl)c4Cl)CC3)cc2N1 [Abilify] | severe sedation, impaired their concentration further and caused an increase in both appetite and weight | – | effect on the patient's symptoms (particularism, concentration) [1]: without improvement in concentration; side effects [1]: sedation and tremor
2 | COC(=O)C(c1ccccc1)C1CCCCN1 (stereo not shown) [Daytrana] | – | worsen their agitation without helping their concentration | –
3 | CCCC(CCC)C(=O)O [Depakote] | – | ineffective; also recorded: not helping their agitation | –
4 | O=C1Cc2cc(CCN3CCN(c4nsc5ccccc45)CC3)c(Cl)cc2N1 [Geodon] | severe sedation, impaired their concentration further and caused an increase in both appetite and weight | – | –
5 | O[C@H]1[C@H](O)[C@@H](O)[C@H](O)[C@@H](O)[C@H]1O [Inositol, inositol] | – | – | effect on "getting stuck" on certain topics in conversation ([1]; Inositol 9000 mg twice a day added to INTUNIV): therapeutically beneficial; effectiveness in treating P.R.I.C.E. Syndrome [3]: effective in addressing residual particularism
6 | Nc1nnc(-c2cccc(Cl)c2Cl)c(N)n1 [Lamictal] | – | ineffective; also recorded: not helping their agitation | –
7 | CN(C)CCC[C@@]1(c2ccc(F)cc2)OCc2cc(C#N)ccc21 [Lexapro] | – | worsening their agitation without helping their rigidity | –
8 | [Li] [Lithium] | – | – | side effects [2, 6]: worsening the patient's concentration
9 | NC(=O)C[S@@+]([O-])C(c1ccccc1)c1ccccc1 [Nuvigil] | – | increased agitation and impulsivity | –
10 | NC(=O)C[S+]([O-])C(c1ccccc1)c1ccccc1 (stereo not shown) [Provigil] | – | increased agitation and impulsivity | –
11 | CNCCC(Oc1ccc(C(F)(F)F)cc1)c1ccccc1 (stereo not shown) [Prozac] | – | – | effect on the patient's symptoms (particularism, concentration) [1]: did not alleviate the particularism; side effects [1]: become “wild” and unable to sleep
12 | Cc1nc2n(c(=O)c1CCN1CCC(c3noc4cc(F)ccc34)CC1)CCCC2 [Risperdal] | severe sedation, impaired their concentration further and caused an increase in both appetite and weight | – | side effects [1]: sedation and weight gain
13 | OCCOCCN1CCN(C2=Nc3ccccc3Sc3ccccc32)CC1 [Seroquel] | severe sedation, impaired their concentration further and caused an increase in both appetite and weight | – | –
14 | CNCC[C@@H](Oc1ccccc1C)c1ccccc1 [Strattera] | – | increased agitation and impulsivity | –
15 | NC(=O)N1c2ccccc2C=Cc2ccccc21 [Tegretol] | worsening the patient's concentration | ineffective | –
16 | N=C(N)NC(=O)Cc1c(Cl)cccc1Cl [Tenex, N-(Aminoiminomethyl)-2,6-dichlorobenzeneacetamide; N-amidino-2-(2,6 dichlorophenyl) acetamide] | – | not effective | manic symptoms in Bipolar Disorder [4]: development or exacerbation of manic symptoms; side effects [2, 6]: too sedative
17 | CC1(C)O[C@@H]2[C@@H](CO[C@@]3(COS(N)(=O)=O)OC(C)(C)O[C@@H]23)O1 [Topamax] | worsening the patient's concentration | ineffective | –
18 | NC(=O)N1c2ccccc2CC(=O)c2ccccc21 [Trileptal] | worsening the patient's concentration | ineffective | –
19 | CC(NC(C)(C)C)C(=O)c1cccc(Cl)c1 (stereo not shown) [Wellbutrin] | – | increased agitation and impulsivity | –
20 | CN[C@H]1CC[C@@H](c2ccc(Cl)c(Cl)c2)c2ccccc21 [Zoloft] | – | – | effect on the patient's symptoms (particularism, concentration) [1]: did not alleviate the particularism; side effects [1]: become “wild” and unable to sleep
21 | Cc1cc2c(s1)Nc1ccccc1N=C2N1CCN(C)CC1 [Zyprexa] | severe sedation, impaired their concentration further and caused an increase in both appetite and weight | – | –
22 | CC(C)NCC(O)COc1cccc2ccccc12 (stereo not shown) [propranolol] | too sedative | not effective | –
23 | Clc1cccc(Cl)c1N=C1NCCN1 [short-acting clonidine, 2,6-dichloro-N-2-imidazolidinylidene benzeneamine] | too sedative | not effective | biological half-life ([5]; after oral administration of short-acting clonidine): four to six; primary side-effect ([5]; short-acting clonidine, about an hour after the given dose): sedation; absorption from the gastrointestinal tract ([5]; short-acting oral formulation): almost completely absorbed; effectiveness in treating P.R.I.C.E. Syndrome [3]: ineffective
